Data reported in paper PMC11854273, “Screening of the Antimelanoma Activity of Monoterpenes—In Vitro Experiments on Four Human Melanoma Lines” (Current Issues in Molecular Biology, 2025).
Read-outs that look alike come from different tables or passages of the source.

What was measured:
[1] = tested on: A375 malignant melanoma cell line; experiment: MTT cell viability assay, A375; assay type: cell-based; conditions: Homo sapiens
Procedure: (§1) All tested cell lines—the HaCaT cell line model of human keratinocyte cells (density: 1 × 10^4 cells/mL) and four human malignant melanoma lines (density: 2–3 × 10^4 cells/mL, depending on the cell line—were plated on microtiter plates (NEST Biotechnology, Wuxi, China). After a day (24 h) of incubation, the medium was replaced with a fresh medium to which increasing concentrations of the tested substances were added. The experimental steps of the MTT assay were previously described. Each experiment in the MTT assay was performed in triplicate to ensure the repeatability and validity of the results.
(§2) Data were presented as means ± standard errors (SEMs).

[2] = tested on: SK-MEL28 malignant melanoma cell line; experiment: MTT cell viability assay, SK-MEL28; assay type: cell-based; conditions: Homo sapiens
Procedure: as §1, §2

[3] = tested on: FM55P malignant melanoma cell line; experiment: MTT cell viability assay, FM55P; assay type: cell-based; conditions: Homo sapiens, 72 h
Procedure: as §1, §2

[4] = tested on: FM55M2 malignant melanoma cell line; experiment: MTT cell viability assay, FM55M2; assay type: cell-based; conditions: Homo sapiens, 72 h
Procedure: as §1, §2

[5] = tested on: normal human keratinocytes HaCaT; experiment: MTT cell viability assay, normal keratinocytes; assay type: cell-based; conditions: for IC50: Homo sapiens
Procedure: as §1, §2

[6] = tested on: malignant melanoma cell lines A375, SK-MEL28, FM55P, FM55M2; experiment: MTT cell viability assay, four melanoma lines taken together; assay type: cell-based, human; conditions: for effect on melanoma cell viability (in words): four melanoma lines; for IC50: read-out: IC50 range depending on the melanoma cell line
Procedure: as §1, §2

[7] = tested on: malignant melanoma cell lines A375, SK-MEL28, FM55P, FM55M2; experiment: LDH cytotoxicity assay, melanoma lines; conditions: 72 h
Procedure: Four malignant melanoma cell lines, FM55P, FM55M2 (ECACC, Public Health England, Porton Down, UK), A375 and SK-MEL28 (ATCC, Manassas, VA, USA) were used. The immortalized human normal keratinocyte (HaCaT; ATCC, Manassas, VA, USA) served as a reference cell line. Of note, the A375 cell line is the original and not a CRISPR-modified version of the cell line, and all the tested cell lines in this study have the BRAF V600E mutation. The experimental cell culture conditions were as follows: 37 °C in a humidified atmosphere of 95% air and 5% CO2. The culture media used were as follows: for A375—DMEM high glucose; for SK-MEL28—EMEM; and for FM55P and FM55M2—RPMI1640 (All from Sigma-Aldrich, St. Louis, MO, USA). Previous publications described in more detail the growth conditions of these cell line cultures.
Specified densities (as above) of all the studied melanoma and normal human cell line were plated on microtiter plates (NEST). […] The LDH test was carried out after 72 h of incubation with the tested terpenes according to the manufacturer’s instructions. A more detailed description of the steps of the LDH test was previously provided.
GraphPad Prism (version 8.0, San Diego, CA, USA) was used for statistical analysis of the data (from the MTT and LDH tests). The analyses were performed with a one-way ANOVA test followed by Tukey’s post hoc test. Data were presented as means ± standard errors (SEMs). The median inhibitory concentration (IC50) values for the tested terpenes were calculated automatically with a computer-assisted log-probit method using an MS Excel spreadsheet, as previously described.

[8] = tested on: B16-F10 mouse melanoma cell lines; design: method as in PMID 22352891; conditions: B16-F10, MTT test, cited from earlier work
[9] = tested on: colo-205 colon cancer cell line; conditions: cited from earlier work
[10] = tested on: Ishikawa cell line, of endometrial cancer; conditions: 24 h of incubation; cited from earlier work
[11] = tested on: mouse melanoma B16(F10) cells; conditions: B16F10; cited from earlier work
A431 skin cancer line = conditions: A431, MTT assay; cited from earlier work
[12] = tested on: human cervical cancer, human lung cancer, monkey kidney cells and mouse macrophages; design: method as in doi:10.1590/S0044-59672007000200015; conditions: 200 µg/mL (≈1.5 mM); cited from earlier work
[13] = tested on: liver cancer cell lines and mouse melanoma B16-F10; design: method as in PMID 23453306; conditions: authors' conversion of the μg/mL values; cited from earlier work
MCF-7 breast cancer line = tested on: MCF-7 breast cancer line; design: method as in PMID 32772589; conditions: cited from earlier work
MDA-MB-231 cells = tested on: MDA-MB-231 cells; design: method as in PMID 32772589; conditions: cited from earlier work
[14] = tested on: MDA MB-231 breast cancer cell line; design: method as in PMID 32526880, PMID 30733560; conditions: cited from earlier work
[15] = tested on: 4T1 breast cancer cell line; design: method as in PMID 32526880, PMID 30733560; conditions: cited from earlier work
[16] = tested on: A549 lung cancer cell line; design: method as in PMID 32420353; conditions: cited from earlier work
[17] = tested on: H1299 lung cancer cell line; design: method as in PMID 32420353; conditions: cited from earlier work
[18] = tested on: SW620 colon cancer cell line; design: method as in PMID 31323842; conditions: cited from earlier work
[19] = tested on: HT29 colon cancer cell line; design: method as in PMID 31323842; conditions: cited from earlier work
A549 line = tested on: A549 line; design: method as in PMID 31202132; conditions: cited from earlier work
[20] = A-375, A375, MTT assay, 72 h, mean ± SEM, read-out: IC50
[21] = SK-MEL-28, SK-MEL28, MTT assay, 72 h, mean ± SEM, read-out: IC50
[22] = FM55P, MTT assay, mean ± SEM, read-out: IC50
[23] = FM55M2, MTT assay, mean ± SEM, read-out: IC50
[24] = HaCaT, MTT assay, 72 h, mean ± SEM, read-out: IC50
[25] = range over the four human melanoma lines, MTT, 72 h
[26] = A549, authors' conversion, read-out: IC50

IC50 [1, 20] [µM]	IC50 [2, 21] [µM]	IC50 [3, 22] [µM]	IC50 [4, 23] [µM]	IC50 [6, 25] [µM]	IC50 range depending on the melanoma cell line [6, 25]	Structure (SMILES)	effect on normal keratinocyte cells (in words) ([5]; HaCaT, MTT)	IC50 [5, 24] [µM]	effect on melanoma cell viability (in words) ([6]; MTT, 72 h)	concentration with statistically significant cytotoxicity towards melanoma cells [7]	concentration significantly affecting viability of normal keratinocytes ([5]; HaCaT, MTT, 72 h) [µM]	also measured
480 ± 40	510 ± 30	460 ± 50	530 ± 50	460 to 530		Cc1ccc(C(C)C)c(O)c1 [Thymol, thymol]	at high concentrations, it affects the viability of normal cell lines without cytotoxicity	> 1300	showed a significant anti-viability effect	above 0.03 mM		concentration from which cytotoxicity was statistically significant ([7]; SK-MEL28 line): ≥ 30 µM; IC50 ([8]; authors' conversion, read-out: IC50): 400 µM; IC50 [8]: 60.09 µg/mL
					could not be determined	C=C(C)CCC[C@H](C)CCO [Rhodinol, rhodinol]			did not show any significant activity		≥ 4800	concentration significantly affecting viability of melanoma cell lines ([6]; MTT, 72 h): ≥ 4.8 mM
270 ± 30	440 ± 30	330 ± 20	420 ± 20	270 to 440		CC(C)=CCC/C(C)=C/CO [Geraniol, geraniol]		> 650	showed a significant anti-viability effect			IC50 [9]: 20 µM; IC50 [10]: 260 µM; IC50 [11]: 150 ± 19 µM; IC50 (A431 skin cancer line): 98 µM
3630 ± 560	4810 ± 290	2450 ± 380	2170 ± 300	2170 to 4810		CC(C)=CCCC(C)CCO (stereo not drawn) [Citronellol, citronellol]		6270 ± 1150	showed a significant anti-viability effect	above 4.2 mM	1200 to 6000	IC50 (MCF-7 breast cancer line): 80 µM; IC50 (MDA-MB-231 cells): 35 µM
130 ± 10	100 ± 10	90 ± 10	80	80 to 130		CC(C)=CCC/C(C)=C/C=O [Citral, citral]	at high concentrations, it had a negative effect on normal keratinocyte cells	290 ± 10	showed a significant anti-viability effect	above 0.2 mM		inhibition of HaCaT proliferation ([5]; 0.3 mM, MTT): up to 28%; inhibition of HaCaT proliferation ([5]; highest concentration of 0.4 mM, MTT): approximately 10%; IC50 ([14]; MDA MB-231, authors' conversion, read-out: IC50): ~135 µM; IC50 ([14]; MDA MB-231): 20.5 ± 1.41 µg/mL; IC50 ([15]; 4T1, authors' conversion, read-out: IC50): ~140 µM; IC50 ([15]; 4T1): 21.4 ± 2.82 µg/mL; IC50 [16, 26]: ~11 µM; IC50 ([16]; A549): 1.73 ± 0.37 µg/mL; IC50 ([17]; H1299, authors' conversion, read-out: IC50): ~26 µM; IC50 ([17]; H1299): 4.01 ± 0.30 µg/mL; IC50 ([18]; SW620, authors' conversion, read-out: IC50): ~148 µM; IC50 ([18]; SW620): 22.50 ± 2.50 µg/mL; IC50 ([19]; HT29, authors' conversion, read-out: IC50): ~143 µM; IC50 ([19]; HT29): 21.77 ± 0.23 µg/mL
						Cc1ccc(C(C)C)cc1O [Carvacrol, carvacrol]	did not negatively affect normal human keratinocyte cells		showed a significant anti-viability effect	50 to 650 µM		IC50 ([1]; A-375, 72 h): 60 µM; IC50 ([2]; SK-MEL-28, 72 h): 60 ± 10 µM; IC50 [3]: 60 ± 10 µM; IC50 [4]: 50 µM; concentration up to which HaCaT viability was not significantly affected ([5]; HaCaT, MTT, 72 h): ≤ 650 µM; IC50 ([5]; HaCaT, 72 h): > 650 µM; IC50 ([6]; Homo sapiens, 72 h): 50 to 60 µM; selectivity index ([6]; SI = IC50 for HaCaT / IC50 for respective melanoma cell line, MTT): above 10; IC50 [11]: 120 ± 15 µM; IC50 (A549 line; [26]): ~670 µM; IC50 (A549 line; A549): 100 µg/mL
					could not be determined	CC(C)=CCC/C(C)=C\CO [Nerol, nerol]			Its effect was not significant			concentration significantly affecting viability of normal keratinocytes ([5]; human, 72 h): 650 µM; concentration significantly affecting viability of melanoma cell lines ([6]; MTT, 72 h): 0.13 to 0.65 mM

Structure (SMILES)	IC50 [1, 20] [µM]	IC50 [2, 21] [µM]	IC50 [3, 22] [µM]	IC50 [4, 23] [µM]	IC50 [6, 25] [µM]	IC50 range depending on the melanoma cell line [6, 25]	effect on normal keratinocyte cells (in words) ([5]; HaCaT, MTT)	IC50 [5, 24] [µM]	effect on melanoma cell viability (in words) ([6]; MTT, 72 h)	concentration with statistically significant cytotoxicity towards melanoma cells [7]	concentration significantly affecting viability of normal keratinocytes ([5]; HaCaT, MTT, 72 h) [µM]	also measured
C=CC(=C)CCC=C(C)C [Myrcene, myrcene]						could not be determined					3000	concentration up to which no significant inhibition of melanoma line growth ([6]; MTT, 72 h): up to 5 mM; cytotoxic activity (in words) [12]: no cytotoxic activity; IC50 [13]: 70 to 90 µM
